Data published in PubChem BioAssay (NCI).
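The compound was tested at five concentrations on cells cultured in 96-well plates, with a 48-hour exposure period. TGI: concentration producing complete growth inhibition.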

Key:
Test in all cases: inhibition of tumour cell growth, NCI panel, 48 h
HOP-92 NSCLC = system: HOP-92 NSCLC
SNB-75 CNS = system: SNB-75 CNS
HL-60(TB) leukemia = system: HL-60(TB) leukemia
SK-MEL-5 melanoma = system: SK-MEL-5 melanoma
HOP-62 NSCLC = system: HOP-62 NSCLC
786-0 renal = system: 786-0 renal
A549 NSCLC = system: A549 NSCLC
EKVX NSCLC = system: EKVX NSCLC
UACC-62 melanoma = system: UACC-62 melanoma
M14 melanoma = system: M14 melanoma

| SMILES | TGI (HOP-92 NSCLC) [µM] | TGI (SNB-75 CNS) [µM] | TGI (HL-60(TB) leukemia) [µM] | TGI (SK-MEL-5 melanoma) [µM] | TGI (HOP-62 NSCLC) [µM] | TGI (786-0 renal) [µM] | TGI (A549 NSCLC) [µM] | TGI (EKVX NSCLC) [µM] | TGI (UACC-62 melanoma) [µM] | TGI (M14 melanoma) [µM] |
| --- | --- | --- | --- | --- | --- | --- | --- | --- | --- | --- |
| CC(CCC=O)CCOCc1ccccc1 (stereo not given) | > 100 | > 100 | 45.1 | > 46.4 | > 100 | > 100 | > 100 | > 100 | > 100 | > 100 |
| N#CC(N)(C(=O)CCC(=O)Nc1cccc(Cl)c1)c1ccc(Cl)cc1 (stereo not given) | > 100 | > 100 | > 100 | > 100 | > 100 | > 100 | > 100 | > 100 | > 100 | > 100 |
| Cc1ccc(NC(=O)C(=O)C(C(=O)c2ccc3ccccc3c2)C2OC(=O)c3ccccc32)cc1C (stereo not given) | 40.6 | 7.34 | 44.9 | 30 | 35.7 | 23.8 | 82.4 | > 100 | 30.7 | 32.2 |
| CN(C)c1nc2ccccc2[nH]1 | > 100 | > 100 | > 100 | > 100 | > 100 | > 100 | > 100 | > 100 | > 100 | > 100 |
| CS(=O)(=O)Nc1ccc2c(c1)oc(=O)c1ccccc12 | > 100 | > 100 | > 100 | > 100 | > 100 | > 100 | > 100 | > 100 | > 100 | > 100 |
